The values that follow come from US8242087B2, “Phosphate modified nucleosides useful as substrates for polymerases and as antiviral agents” (priority 2007, dated 2012).

For experiment [1], the target named is T1, HIV reverse transcriptase (Human immunodeficiency virus type 1 group M subtype B, UniProt P03366).
T1 construct: performed for the enzyme HIV reverse transcriptase (GE Healthcare, 30 U/4 stock solution); purchased GE Healthcare
Put plainly: Gel-based single-nucleotide-incorporation and control assays with HIV RT (Example 4). It is filed as biochemical, HIV-1. As for the experimental part:
End-labeled primers were annealed to their template by combining primer and templates in a molar ratio of 1:2 and heating the mixture to 70° C. for 10 minutes, followed by slow cooling to room temperature over a period of 2.5 hours. For the incorporation of L-Asp-dGMP (9), L-Asp-dTMP (10), L-Asp-dCMP (11), and N-Me-Asp-dAMP (12) (see FIG. 13), the primer P1 was annealed to templates T1, T2, T4 or A and P2 was annealed to T4. A series of 20 μL reactions was performed for the enzyme HIV reverse transcriptase (GE Healthcare, 30 U/4 stock solution). The final mixture contained 125 nM primer-template complex, RT buffer (250 mM TrisHCl, 250 mM KCl, 50 mM MgCl2, 2.5 mM spermidine, 50 mM DTT, pH 8.3), 0.03 U/μL HIV RT and different amino acid phosphoramidates building blocks concentrations. In the control reaction with the natural nucleotide, 10 μM or 50 μM dGTP, dTTP, dATP or dCTP were used. The mixture was incubated at 37° C. […] and aliquots were quenched after 5, 10, 20, 30, 60 and 120 minutes respectively.
All polymerase reactions (3 μL) were quenched by the addition of 10 μL of loading buffer (90% formamide, 0.05% bromophenol blue, 0.05% xylene cyanol and 50 mM EDTA). Samples were heated at 70° C. for 5 minutes prior to analysis by electrophoresis for 2-3 hours at 2000 V on a 0.4 mm 20% denaturing gel in the presence of a 100 mM Tris-borate, 2.5 mM EDTA buffer, pH 8.3. Products were visualized by phosphor imaging. The amount of radioactivity in the bands corresponding to the products of enzymatic reactions was determined by using the Optiquant image analysis software (Perkin Elmer).

The target of experiment [2] is T2, Therminator DNA polymerase (Thermococcus sp., UniProt Q56366, A485L/D141A/E143A).
T2 construct: purchased Westburg (NEB)
Put plainly: Primer extension by Therminator DNA polymerase (P1/T3, P1/T5). Format: biochemical, (9° N-7) Thermococcus sp. On the procedure:
Primer extension study with HIV RT and Therminator DNA polymerase was performed in a fashion similar to the single nucleotide incorporation experiments. Two sets of primer/template complexes were used: P1/T3 and P1/T5.
(§1) In the case of Therminator DNA polymerase, the enzyme was obtained from Westburg (NEB) (2 U/μL) and the reactions were carried out in a 10× Thermopol reaction buffer containing 20 mM TRIS.HCl, 10 mM KCl, 2 mM MgSO4, 0.1% Triton X-100, pH 8.8. The final concentration of the Therminator DNA pol in the reaction mixture was 8.33×10^−4 U/μL. The polymerase reaction involving Therminator DNA polymerase or any other thermostable polymerase (Vent (exo^−), Taq DNA polymerase) was carried out in a similar way as the HIV RT reaction with some modifications. The dNTP solutions and the primer/template/DNA polymerase mixture solutions were topped with mineral oil (30-60 μL) and pre-incubated at 70° C. for 2 minutes. The polymerase reactions were performed at 70° C. as well.

The next experiment concerns the target T3, HIV RT (Human immunodeficiency virus type 1 group M subtype B, UniProt P03366).
T3 construct: HIV RT polymerase was purchased from GE Healthcare; purchased GE Healthcare (Amersham Bioscience)
Put plainly: Steady state kinetics of single nucleotide incorporation by HIV RT (P1/T1). Format: biochemical, HIV-1. As for the experimental part:
The steady steate kinetics of a single nucleotide incorporation of an amino acid phosphoramidate (AA-dAMP) and of a natural nucleoside triphosphate (dATP) was determined by the gel-based polymerase assay. In all the experiments, the template T1 and the primer P1 were used (Table 1). The primer and template in 1:2 molar ratio were hybridized in a buffer containing 20 mM TRIS.HCl, 10 mM KCl, 2 mM MgSO4, 0.1% Triton X-100, pH 8.8 and used in an amount to provide 125 nM concentration of the primer in each 12 μL reaction. The range of concentrations for amino acid phosphoramidates was optimized according to a Km value for the incorporation of an individual nucleotide. In the case of HIV RT (Amersham Bioscience (GE Healthcare), 30 U/μL), reaction mixtures containing the enzyme in concentration to attain 5-20% conversion and appropriate substrate concentration (nucleoside phosphoramidate or natural dNTP) were incubated at 37° C. and run for 8-10 different time intervals. Kinetic analysis of single nucleotide incorporation by Therminator DNA polymerase (NEB, 2 U/μL) was performed similarly except the incubations and polymerase reactions, which were carried out at 70° C. To prevent solvent condensation/evaporation, the reaction mixtures were topped with mineral oil. The reactions were quenched by addition of the buffer containing 80% formamide, 2 mM EDTA, 1×TBE buffer. The analysis of polymerase reactions was performed by polyacrylamide gel electrophoresis (20% (19:1 mono:bis), 7M urea, 30 cm×40 cm×0.4 mm). The relative band intensities were measured using OptiQuant software. The rates of incorporation (V) were calculated based on the percentage of the extension production (n+1 band). The kinetic parameters (Vmax and Km) were determined by plotting V (pmol/min·U) versus substrate concentration and fitting the data point to a rectangular hyperbola using GraphPad Prism software.

For experiment [3], the target named is T2, Therminator DNA polymerase. The experiment can be described thus: Single nucleotide incorporation by Therminator DNA polymerase. It is filed as biochemical, (9° N-7) Thermococcus sp. On the procedure:
as §1

The target in experiment [4] is T1, HIV reverse transcriptase. Put plainly: Gel-based single-nucleotide-incorporation and control assays with HIV RT (Example 4). It is filed as biochemical, HIV-1. The following applies: P1/T2; 9 incorporated first (two hours), then compound 1 added, two more hours.
Experiment [5] concerns the target Vent (exo−) DNA polymerase (Thermococcus litoralis, UniProt P30317, D141A/DEL1082-1471/DEL495-1032/E143A). Put plainly: Single nucleotide incorporation by Vent (exo−) DNA polymerase. It is filed as biochemical. As for the experimental part: (§2) Reaction conditions: Primer (P1) was 5′-labeled with ^33P followed by annealing to a template T1; 125 nM primer/template (P1/T1), [Taq]=0.005 U/μL, [Vent]=0.005 U/μL, [KF]=0.05 U/μL; time intervals: 5, 15, 30, 60, 90 and 120 minutes.
as §1

Another experiment has as its target T4, KF (exo−) DNA polymerase (Escherichia coli, UniProt P00582, D355A/E357A).
T4 construct: Klenow Fragment (KF) (exo^−) DNA polymerase
The experiment can be described thus: Single nucleotide incorporation by KF (exo−) DNA polymerase. Format: biochemical. The following applies: 60 minutes. As for the experimental part:
as §2

T2 sequence (Q56366 whole entry D141A/E143A/A485L): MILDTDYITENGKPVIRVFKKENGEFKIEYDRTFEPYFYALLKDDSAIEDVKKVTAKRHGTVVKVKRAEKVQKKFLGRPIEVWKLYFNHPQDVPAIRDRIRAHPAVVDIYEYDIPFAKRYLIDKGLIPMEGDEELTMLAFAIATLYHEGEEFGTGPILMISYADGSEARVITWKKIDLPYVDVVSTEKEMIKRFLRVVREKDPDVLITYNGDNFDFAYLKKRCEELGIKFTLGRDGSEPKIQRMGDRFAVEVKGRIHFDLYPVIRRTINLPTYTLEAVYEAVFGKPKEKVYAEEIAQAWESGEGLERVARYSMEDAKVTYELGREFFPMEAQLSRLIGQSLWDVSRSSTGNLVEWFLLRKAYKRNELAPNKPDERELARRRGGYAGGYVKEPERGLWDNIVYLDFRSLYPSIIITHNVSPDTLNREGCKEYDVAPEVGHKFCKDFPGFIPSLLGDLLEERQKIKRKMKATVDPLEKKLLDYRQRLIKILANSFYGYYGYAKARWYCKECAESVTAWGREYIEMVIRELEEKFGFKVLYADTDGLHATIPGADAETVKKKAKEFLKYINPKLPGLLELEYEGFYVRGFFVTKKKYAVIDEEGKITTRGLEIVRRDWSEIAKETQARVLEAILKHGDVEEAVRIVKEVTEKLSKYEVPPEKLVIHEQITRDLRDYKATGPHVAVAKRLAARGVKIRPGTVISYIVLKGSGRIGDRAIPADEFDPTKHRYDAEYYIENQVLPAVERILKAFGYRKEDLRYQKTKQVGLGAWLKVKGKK
Chain of Vent (exo−) DNA polymerase (P30317 other isoform, or with tags, fused parts or gaps D141A/E143A/DEL495-1032/DEL1082-1471): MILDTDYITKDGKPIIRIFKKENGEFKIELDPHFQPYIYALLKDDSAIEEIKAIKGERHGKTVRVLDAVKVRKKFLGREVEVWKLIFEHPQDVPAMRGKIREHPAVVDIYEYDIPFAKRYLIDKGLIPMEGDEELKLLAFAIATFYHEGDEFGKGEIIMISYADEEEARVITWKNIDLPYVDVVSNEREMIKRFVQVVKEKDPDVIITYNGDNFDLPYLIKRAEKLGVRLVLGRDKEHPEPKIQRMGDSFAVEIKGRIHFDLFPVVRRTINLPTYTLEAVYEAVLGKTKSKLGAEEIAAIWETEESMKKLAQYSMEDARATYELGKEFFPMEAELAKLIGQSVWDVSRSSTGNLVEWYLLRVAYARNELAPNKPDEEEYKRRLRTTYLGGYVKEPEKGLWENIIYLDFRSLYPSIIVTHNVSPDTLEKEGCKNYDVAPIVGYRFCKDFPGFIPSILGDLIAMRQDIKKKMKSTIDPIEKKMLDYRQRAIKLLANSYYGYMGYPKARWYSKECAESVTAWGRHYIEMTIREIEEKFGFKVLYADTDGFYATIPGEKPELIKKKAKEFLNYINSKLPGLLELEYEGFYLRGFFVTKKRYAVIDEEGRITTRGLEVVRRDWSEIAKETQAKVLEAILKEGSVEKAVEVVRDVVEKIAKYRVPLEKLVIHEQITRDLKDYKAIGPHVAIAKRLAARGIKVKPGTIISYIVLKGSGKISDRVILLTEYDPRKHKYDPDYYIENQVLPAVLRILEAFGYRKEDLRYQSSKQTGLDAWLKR
T4 sequence (P00582 324-928 D355A/E357A): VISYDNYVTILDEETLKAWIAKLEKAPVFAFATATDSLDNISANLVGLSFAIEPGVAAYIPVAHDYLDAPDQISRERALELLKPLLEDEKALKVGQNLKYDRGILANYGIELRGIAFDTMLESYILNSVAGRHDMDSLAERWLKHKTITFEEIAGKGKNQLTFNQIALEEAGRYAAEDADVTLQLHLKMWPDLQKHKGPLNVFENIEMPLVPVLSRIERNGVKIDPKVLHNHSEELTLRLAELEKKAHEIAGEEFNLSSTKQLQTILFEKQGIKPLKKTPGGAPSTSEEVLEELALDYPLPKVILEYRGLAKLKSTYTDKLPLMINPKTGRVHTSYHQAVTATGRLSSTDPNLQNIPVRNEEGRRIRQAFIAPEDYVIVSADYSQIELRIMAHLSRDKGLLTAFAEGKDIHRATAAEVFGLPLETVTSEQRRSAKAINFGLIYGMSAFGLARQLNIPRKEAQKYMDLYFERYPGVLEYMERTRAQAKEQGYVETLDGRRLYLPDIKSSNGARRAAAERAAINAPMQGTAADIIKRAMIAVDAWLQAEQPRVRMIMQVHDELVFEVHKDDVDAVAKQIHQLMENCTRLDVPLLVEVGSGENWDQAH

Broadly, the Km is the substrate concentration at which the rate is half of its maximum. As to “2′-deoxy-adenosine-5′-aspartyl-phosphoramidate [Compound 1]”, the “base-pairing selectivity of incorporation” value in experiment [1] (P1/T1) is listed as “inserted selectively against thymine”. Also, the “incorporation with blunt ended duplex” value in experiment [1] (primer P1, template A) is listed as “none of these compounds incorporated at all”. Besides, the “primer extension” value in experiment [2] (T3 template) is listed as “successfully incorporated”. The “number of adenine residues incorporated” value in experiment [2] (T5 template, overhang of seven thymidine residues) is on record as “up to five adenine residues”. Moreover, on HIV RT, the “Km, fold higher as compared to dATP” value amounted to 400 fold; the “Vmax, fold lower than natural substrate dATP” value amounted to 3 fold; the “specificity (Vmax/Km), fold reduced vs natural substrate” value is reported as 1300 fold. In addition, on HIV RT (P1/T1, 37° C.), the Km is 185 ± 24.5 µM and the Vmax came to 2.63 ± 0.13 pmol/min · U. The substance further had a primer extension in experiment [3] (60 min, 500 μM nucleoside concentration) of 25.2%. The “incorporation as Therminator DNA polymerase substrate” value in experiment [3] (single nucleotide incorporation, P1/T1) is “act effectively as alternative substrates”. Further, in experiment [4], the “n+1 product” value came to 20% and the “n+2 product” value is 80%. Also, the “insertion into a growing primer strand” value in experiment [5] is given as “failed to insert”. For the same substance, the “conversion of the primer strand” value at KF (exo−) DNA polymerase is 32.5%.
